# Measurements published in patent US20240317744A1, “Bicyclic Ureas As Kinase Inhibitors” (Incyte Corporation, priority 2023, published 2024).
# Experiments:
# [1] = target: T1, pseudo-kinase domain (JH2, amino-acids 536-812) of human Wild Type JAK2 (Homo sapiens, UniProt O60674, F794H/W659A/W777A); assay: JAK2 LanthaScreen JH2-WT Binding Assay; conditions: JAK2 JH2-WT 0.145 nM, 50 nM tracer, 1 hour at 25° C.; read-out: JH2 BIND WT
# T1 construct: pseudo-kinase domain (JH2, amino-acids 536-812 with 3 surface mutations W659A, W777A, F794H); His (C); purchased BPS Bioscience 79463; host or cells: baculovirus expression system
# Summary of the method: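 Biotinylated C-terminal His-Avi-tagged JH2 (residues 536-812, baculovirus-expressed) at 0.145 nM was incubated with serially diluted compounds, 50 nM fluorescent JAK2-JH2 tracer and 0.25 nM streptavidin-Tb cryptate in pH 7.5 Tris buffer with MgCl2, Brij-35, BSA, EGTA, glycerol and DTT. LanthaScreen TR-FRET was read after 1 hour at 25° C; IC50 came from four-parameter fits.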
# [2] = target: T2, catalytic domain (JH1, amino acids 826-1132) of human JAK2 (Homo sapiens, UniProt O60674); assay: JAK2 LanthaScreen JH1 Binding Assay; conditions: JAK2 JH1 1.5 nM, 50 nM tracer, 2 hours at 25° C.; read-out: JH1 BIND
# T2 construct: catalytic domain (JH1, amino acids 826-1132) of human JAK2; FLAG (N); biotin (biotinylated); purchased Carna Biosciences 08-445-20N; host or cells: baculovirus expression system
# Summary of the method: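 TR-FRET tracer-displacement format: compound IC50 from four-parameter curves after 2 h at 25° C. Reaction held 1.5 nM biotinylated, FLAG-tagged JH1 (aa 826-1132), 50 nM tracer, 0.5 nM Streptavidin-Tb, pH 7.5 Tris buffer; 2 mM ATP set nonspecific background.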
# [3] = target: catalytic domain (JH1, amino acids 808-1132) of human JAK2 (Homo sapiens, UniProt O60674); assay: JAK2 HTRF Enzyme Activity Assay; type: biochemical; conditions: ATP 30 µM, 60 minutes at 25° C.; read-out: V617F ENZ 30 UM
# [4] = target: T3, pseudo-kinase domain (JH2, amino-acids 536-812) of human V617F mutant JAK2 (Homo sapiens, UniProt O60674, F794H/V617F/W659A/W777A); assay: JAK2 LanthaScreen JH2-V617F Binding Assay; conditions: JAK2 JH2-V617F 0.26 nM, 50 nM tracer, 1 hour at 25° C.; read-out: JH2 BIND V617F
# T3 construct: pseudo-kinase domain (JH2, amino-acids 536-812 with 3 surface mutations W659A, W777A, F794H); His (C); purchased BPS Bioscience 79498; host or cells: baculovirus expression system
# Summary of the method: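 Binding was measured as TR-FRET displacement of 50 nM tracer from 0.26 nM biotinylated His-Avi protein, incubated one hour at 25° C; IC50 from a four-parameter fit.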
# T3 sequence (O60674 536-812 V617F/W659A/W777A/F794H): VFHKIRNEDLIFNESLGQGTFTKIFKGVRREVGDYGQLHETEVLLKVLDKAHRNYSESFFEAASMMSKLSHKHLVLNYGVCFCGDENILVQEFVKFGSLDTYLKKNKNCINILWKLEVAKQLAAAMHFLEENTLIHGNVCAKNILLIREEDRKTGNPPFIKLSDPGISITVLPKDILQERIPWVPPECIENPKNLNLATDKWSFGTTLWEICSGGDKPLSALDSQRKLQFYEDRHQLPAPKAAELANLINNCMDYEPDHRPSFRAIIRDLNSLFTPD
# T1 sequence (O60674 536-812 W659A/W777A/F794H): as the sequence (O60674 536-812 V617F/W659A/W777A/F794H) above, with F82V counted along it
# Sequence of catalytic domain (JH1, amino acids 808-1132) of human JAK2 (O60674 808-1132 limits assumed): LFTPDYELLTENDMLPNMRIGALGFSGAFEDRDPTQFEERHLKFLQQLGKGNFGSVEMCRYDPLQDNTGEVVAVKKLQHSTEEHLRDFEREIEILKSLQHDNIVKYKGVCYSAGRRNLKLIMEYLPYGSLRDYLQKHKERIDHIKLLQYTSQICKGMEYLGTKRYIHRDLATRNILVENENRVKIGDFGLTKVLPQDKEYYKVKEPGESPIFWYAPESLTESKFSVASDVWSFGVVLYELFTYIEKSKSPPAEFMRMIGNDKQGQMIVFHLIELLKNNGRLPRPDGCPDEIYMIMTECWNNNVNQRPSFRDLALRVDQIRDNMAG
# T2 sequence (O60674 826-1132): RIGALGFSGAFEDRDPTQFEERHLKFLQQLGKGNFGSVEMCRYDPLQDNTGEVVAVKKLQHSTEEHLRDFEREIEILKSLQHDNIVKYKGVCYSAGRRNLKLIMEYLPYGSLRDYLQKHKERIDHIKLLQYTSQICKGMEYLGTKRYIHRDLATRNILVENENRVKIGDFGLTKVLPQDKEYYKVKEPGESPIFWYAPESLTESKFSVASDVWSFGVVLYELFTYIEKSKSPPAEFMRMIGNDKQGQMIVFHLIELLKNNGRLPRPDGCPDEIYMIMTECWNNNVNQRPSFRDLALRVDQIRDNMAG
Structure (SMILES),IC50 [1] [nM],IC50 [2] [nM],IC50 [3] [nM],IC50 [4] [nM]
"[2H]C([2H])([2H])n1c(=O)n([C@@H]2CC[C@@H](NC(=O)OC)C2)c2cc(Nc3cc(C4CCN(C)CC4)cc(-c4ncc(C(F)(F)F)s4)n3)ncc21 [Example 157, Methyl ((1R,3R)-3-(3-(methyl-d3)-6-((4-(1-methylpiperidin-4-yl)-6-(5-(trifluoromethyl)thiazol-2-yl)pyridin-2-yl)amino)-2-oxo-2,3-dihydro-1H-imidazo[4,5-c]pyridin-1-yl)cyclopentyl)carbamate]",≤ 10,> 1000,> 1000,≤ 10
"[2H]C([2H])([2H])n1c(=O)n([C@@H]2CC[C@@H](NC(=O)OC)C2)c2cc(Nc3cc(C(=O)N4CC5CC4CO5)c4cccc(C(F)(F)F)c4n3)ncc21 (stereo partly drawn) [Example 12, Methyl ((1R,3R)-3-(6-((4-(2-oxa-5-azabicyclo[2.2.1]heptane-5-carbonyl)-8-(trifluoromethyl)quinolin-2-yl)amino)-3-(methyl-d3)-2-oxo-2,3-dihydro-1H-imidazo[4,5-c]pyridin-1-yl)cyclopentyl)carbamate]",≤ 10,> 1000,> 1000,≤ 10
"[2H]C([2H])([2H])n1c(=O)n([C@@H]2CC[C@@H](NC(=O)OC)C2)c2cc(Nc3ccc4cc(NC5CCC(F)(F)C5)cc(C(F)(F)F)c4n3)ncc21 (stereo partly drawn) [Example 18, Methyl ((1R,3R)-3-(6-((6-((3,3-difluorocyclopentyl)amino)-8-(trifluoromethyl)quinolin-2-yl)amino)-3-(methyl-d3)-2-oxo-2,3-dihydro-1H-imidazo[4,5-c]pyridin-1-yl)cyclopentyl)carbamate]",≤ 10,> 1000,> 1000,≤ 10
"[2H]C([2H])([2H])n1c(=O)n([C@@H]2CC[C@](C)(NC(=O)C3CC3)C2)c2cc(Nc3ccc4c(n3)c(-c3cnn(C(F)(F)F)c3)nn4CC(C)(C)O)ncc21 [Example 119, N-((1S,3R)-3-(6-((1-(2-Hydroxy-2-methylpropyl)-3-(1-(trifluoromethyl)-1H-pyrazol-4-yl)-1H-pyrazolo[4,3-b]pyridin-5-yl)amino)-3-(methyl-d3)-2-oxo-2,3-dihydro-1H-imidazo[4,5-c]pyridin-1-yl)-1-methylcyclopentyl)cyclopropanecarboxamide]",≤ 10,> 1000,> 1000,≤ 10
"COC(=O)N[C@@H]1CC[C@@H](n2c(=O)n(C)c3cnc(Nc4cc(NC(=O)OC5CCC5)cc(-c5cnn(C)c5)c4)cc32)C1 [Example 56, Methyl ((1R,3R)-3-(6-((3-((cyclobutoxycarbonyl)amino)-5-(1-methyl-1H-pyrazol-4-yl)phenyl)amino)-3-methyl-2-oxo-2,3-dihydro-1H-imidazo[4,5-c]pyridin-1-yl)cyclopentyl)carbamate]",≤ 10,> 1000,> 1000,≤ 10
"[2H]C([2H])([2H])n1c(=O)n([C@@H]2CC[C@@H](NC(=O)OC)C2)c2cc(Nc3cc(C(=O)N4CC[C@@H](F)C4)cc(-c4ccc5c(c4)OCCO5)n3)ncc21 [Example 80, Methyl ((1R,3R)-3-(6-((6-(2,3-dihydrobenzo[b][1,4]dioxin-6-yl)-4-((R)-3-fluoropyrrolidine-1-carbonyl)pyridin-2-yl)amino)-3-(methyl-d3)-2-oxo-2,3-dihydro-1H-imidazo[4,5-c]pyridin-1-yl)cyclopentyl)carbamate]",≤ 10,> 1000,> 1000,≤ 10
"COC(=O)N[C@@H]1CC[C@@H](n2c(=O)n(C)c3cnc(Nc4ccn5ncc(-c6cnn(C)c6)c5n4)cc32)C1 [Example 36, Methyl ((1R,3R)-3-(3-methyl-6-((3-(1-methyl-1H-pyrazol-4-yl)pyrazolo[1,5-a]pyrimidin-5-yl)amino)-2-oxo-2,3-dihydro-1H-imidazo[4,5-c]pyridin-1-yl)cyclopentyl)carbamate]",≤ 10,> 1000,> 1000,10 to 100
"[2H]C([2H])([2H])n1cc(-c2cnc3ccc(Nc4cc5c(cn4)n(C)c(=O)n5[C@@H]4CC[C@@H](NC(=O)OC)C4)nn23)c(F)n1 [Example 59, Methyl ((1R,3R)-3-(6-((3-(3-fluoro-1-(methyl-d3)-1H-pyrazol-4-yl)imidazo[1,2-b]pyridazin-6-yl)amino)-3-methyl-2-oxo-2,3-dihydro-1H-imidazo[4,5-c]pyridin-1-yl)cyclopentyl)carbamate]",≤ 10,> 1000,> 1000,≤ 10
"[2H]C([2H])([2H])n1c(=O)n([C@@H]2CC[C@@H](NC(=O)OC)C2)c2cc(Nc3cc(C(=O)N4CCOCC4)c4cccc(C(C)(C)C#N)c4n3)ncc21 [Example 96, Methyl ((1R,3R)-3-(6-((8-(2-cyanopropan-2-yl)-4-(morpholine-4-carbonyl)quinolin-2-yl)amino)-3-(methyl-d3)-2-oxo-2,3-dihydro-1H-imidazo[4,5-c]pyridin-1-yl)cyclopentyl)carbamate]",≤ 10,> 1000,> 1000,≤ 10
"COC(=O)N[C@@H]1CC[C@@H](n2c(=O)n(C)c3cnc(Nc4ccc5cc(-c6cnn(C)c6)ccc5n4)cc32)C1 [Example 32, Methyl ((1R,3R)-3-(3-methyl-6-((6-(1-methyl-1H-pyrazol-4-yl)quinolin-2-yl)amino)-2-oxo-2,3-dihydro-1H-imidazo[4,5-c]pyridin-1-yl)cyclopentyl)carbamate]",100 to 500,> 1000,> 1000,100 to 500
"COC(=O)N[C@@H]1CC[C@@H](n2c(=O)n(C)c3cnc(Nc4ccc(F)c(-c5ccc(C(F)(F)F)nc5)n4)cc32)C1 [Example 69, Methyl ((1R,3R)-3-(6-((3-fluoro-6′-(trifluoromethyl)-[2,3′-bipyridin]-6-yl)amino)-3-methyl-2-oxo-2,3-dihydro-1H-imidazo[4,5-c]pyridin-1-yl)cyclopentyl)carbamate]",≤ 10,> 1000,> 1000,≤ 10
"COC(=O)N[C@@H]1CC[C@@H](n2c(=O)n(C)c3cnc(Nc4cccc(OC5CCC(C#N)CC5)n4)cc32)C1 (stereo partly drawn) [Example 22, Methyl ((1R,3R)-3-(6-((6-((4-cyanocyclohexyl)oxy)pyridin-2-yl)amino)-3-methyl-2-oxo-2,3-dihydro-1H-imidazo[4,5-c]pyridin-1-yl)cyclopentyl)carbamate]",10 to 100,> 1000,> 1000,10 to 100
"COC(=O)Nc1cc(Nc2cc3c(cn2)n(C)c(=O)n3[C@H]2C[C@](C)(NC(=O)OC)C2)cc(-c2cnn(C)c2)c1 [Example 29, Methyl (3-((1-((1r,3r)-3-((methoxycarbonyl)amino)-3-methylcyclobutyl)-3-methyl-2-oxo-2,3-dihydro-1H-imidazo[4,5-c]pyridin-6-yl)amino)-5-(1-methyl-1H-pyrazol-4-yl)phenyl)carbamate]",100 to 500,> 1000,> 1000,100 to 500
"COC(=O)N[C@@H]1CC[C@@H](n2c(=O)n(C)c3cnc(Nc4cccc(-c5ccc6c(c5)OCCO6)n4)cc32)C1 [Example 8, Methyl ((1R,3R)-3-(6-((6-(2,3-dihydrobenzo[b][1,4]dioxin-6-yl)pyridin-2-yl)amino)-3-methyl-2-oxo-2,3-dihydro-1H-imidazo[4,5-c]pyridin-1-yl)cyclopentyl)carbamate]",≤ 10,> 1000,> 1000,≤ 10
"COC(=O)N[C@@H]1CC[C@@H](n2c(=O)n(C)c3cnc(Nc4ccc(F)c(-c5ccc(C6CC6)cc5)n4)cc32)C1 [Example 72, Methyl ((1R,3R)-3-(6-((6-(4-cyclopropylphenyl)-5-fluoropyridin-2-yl)amino)-3-methyl-2-oxo-2,3-dihydro-1H-imidazo[4,5-c]pyridin-1-yl)cyclopentyl)carbamate]",≤ 10,> 1000,> 1000,10 to 100
